Here are results for one molecule from US9452983B2, “Method for refining quinolinic acid” (CJ CHEILJEDANG CORP., priority 2013, dated 2016).

The structures appear in SMILES notation.

This data set in a line: Evaluation of solubility of quinolinic acid with respect to pH. In kind it is physicochemical. The note with it: room temperature (about 23° C.), pH controlled using 28%-ammonia water and 98% sulfuric acid, FIG. 1. The procedure:
Evaluation of solubility of Quinolinic Acid with Respect to pH
Solubility of quinolinic acid in water at room temperature (about 23° C.) with respect to pH was evaluated using a pure quinolinic acid reagent (Sigma-Aldrich Prod. No. P63204), wherein the pH was controlled using a 28%-ammonia water and 98% sulfuric acid).

Consider `O=C(O)c1cccnc1C(=O)O` [quinolinic acid], for which the “Solubility of quinolinic acid in water with respect to pH” value is listed as “the lower the pH, the lower the solubility”.
